Measurements published in the NIST ThermoML archive (doi:10.1016/j.jct.2012.09.004).

Key:
[1] = Pendant drop shape
[2] = refractive index (Na D-line) (dimensionless); conditions: 101.33 kPa, Liquid, Standard Abbe refractometry
[3] = wn = mass fraction of the nth substance listed; conditions: Pendant drop shape
[4] = refractive index (Na D-line) (dimensionless); wn = mass fraction of the nth substance listed; conditions: 101 kPa, Liquid, Standard Abbe refractometry

CC(CC(C)(C)C)CP(=O)([O-])CC(C)CC(C)(C)C.CCCCCCCCCCCCCC[P+](CCCCCC)(CCCCCC)CCCCCC
Conditions | refractive index | surface tension liquid-gas [mN/m]
[1], 297.9 K | – | 28.2
[1], 307.9 K | – | 27.6
[1], 317.7 K | – | 26.9
[1], 328.1 K | – | 26.2
[1], 338 K | – | 25.5
[1], 342.9 K | – | 25
[2], 283.15 K | 1.47702 | –
[2], 288.15 K | 1.47538 | –
[2], 293.15 K | 1.47374 | –
[2], 298.15 K | 1.47209 | –
[2], 303.15 K | 1.47044 | –
[2], 308.15 K | 1.46879 | –
[2], 313.15 K | 1.46712 | –
[2], 318.15 K | 1.46546 | –
[2], 323.15 K | 1.46383 | –
[2], 328.15 K | 1.46216 | –
[2], 333.15 K | 1.46056 | –
[2], 338.15 K | 1.45893 | –
[2], 343.15 K | 1.45716 | –
[2], 348.15 K | 1.45553 | –
[2], 353.15 K | 1.45387 | –

CCCCCCCCCCCCCC[P+](CCCCCC)(CCCCCC)CCCCCC.O=S(=O)([N-]S(=O)(=O)C(F)(F)F)C(F)(F)F
Conditions | refractive index | surface tension liquid-gas [mN/m]
[1], 298.2 K | – | 30.1
[1], 307.9 K | – | 29.5
[1], 317.9 K | – | 28.7
[1], 327.9 K | – | 28.1
[1], 337.8 K | – | 27.5
[1], 343.2 K | – | 27.3
[2], 283.15 K | 1.45436 | –
[2], 288.15 K | 1.45279 | –
[2], 293.15 K | 1.4512 | –
[2], 298.15 K | 1.4496 | –
[2], 303.15 K | 1.44797 | –
[2], 308.15 K | 1.44637 | –
[2], 313.15 K | 1.44476 | –
[2], 318.15 K | 1.44317 | –
[2], 323.15 K | 1.44158 | –
[2], 328.15 K | 1.43948 | –
[2], 333.15 K | 1.43836 | –
[2], 338.15 K | 1.43681 | –
[2], 343.15 K | 1.43524 | –
[2], 348.15 K | 1.4337 | –
[2], 353.15 K | 1.43213 | –

CC(CC(C)(C)C)CP(=O)([O-])CC(C)CC(C)(C)C.CCCCCCCCCCCCCC[P+](CCCCCC)(CCCCCC)CCCCCC + O
w2 = 0.158
Conditions | refractive index | surface tension liquid-gas [mN/m]
[3], 297.9 K | – | 28.32
[3], 307.9 K | – | 27.7
[3], 317.9 K | – | 27.24
[3], 328.8 K | – | 26.41
[3], 339 K | – | 25.6
[3], 343.4 K | – | 25.34
[4], 298.15 K | 1.45864 | –
[4], 303.15 K | 1.45697 | –
[4], 308.15 K | 1.45534 | –
[4], 313.15 K | 1.45363 | –
[4], 318.15 K | 1.45192 | –
[4], 323.15 K | 1.45019 | –
[4], 328.15 K | 1.44849 | –
[4], 333.15 K | 1.44683 | –
[4], 338.15 K | 1.44523 | –
[4], 343.15 K | 1.44374 | –
[4], 348.15 K | 1.4424 | –
[4], 353.15 K | 1.44126 | –

CCCCCCCCCCCCCC[P+](CCCCCC)(CCCCCC)CCCCCC.O=S(=O)([N-]S(=O)(=O)C(F)(F)F)C(F)(F)F + O
w2 = 0.0023
Conditions | refractive index | surface tension liquid-gas [mN/m]
[3], 298.1 K | – | 30.05
[3], 307.8 K | – | 29.33
[3], 318 K | – | 28.6
[3], 328 K | – | 27.91
[3], 338.6 K | – | 27.17
[3], 343.3 K | – | 26.88
[4], 298.15 K | 1.44921 | –
[4], 303.15 K | 1.44765 | –
[4], 308.15 K | 1.44606 | –
[4], 313.15 K | 1.44449 | –
[4], 318.15 K | 1.44293 | –
[4], 323.15 K | 1.44136 | –
[4], 328.15 K | 1.4398 | –
[4], 333.15 K | 1.43822 | –
[4], 338.15 K | 1.43669 | –
[4], 343.15 K | 1.43515 | –
[4], 348.15 K | 1.43362 | –
[4], 353.15 K | 1.43207 | –

CCCCCCCCCCCCCC[P+](CCCCCC)(CCCCCC)CCCCCC.N#C[N-]C#N [tetradecyl(trihexyl)phosphonium dicyanamide]
Conditions | refractive index | surface tension liquid-gas [mN/m]
[1], 298.4 K | – | 32.3
[1], 308 K | – | 31.6
[1], 318 K | – | 30.9
[1], 328.4 K | – | 30.3
[1], 339.2 K | – | 29.7
[1], 343.4 K | – | 29.4
[2], 283.15 K | 1.48861 | –
[2], 288.15 K | 1.48706 | –
[2], 293.15 K | 1.48545 | –
[2], 298.15 K | 1.48387 | –
[2], 303.15 K | 1.48228 | –
[2], 308.15 K | 1.48064 | –
[2], 313.15 K | 1.47902 | –
[2], 318.15 K | 1.47744 | –
[2], 323.15 K | 1.47585 | –
[2], 328.15 K | 1.47421 | –
[2], 333.15 K | 1.47252 | –
[2], 338.15 K | 1.4709 | –
[2], 343.15 K | 1.46926 | –
[2], 348.15 K | 1.46767 | –
[2], 353.15 K | 1.46599 | –

CCCCCCCCCCCCCC[P+](CCCCCC)(CCCCCC)CCCCCC.N#C[N-]C#N [tetradecyl(trihexyl)phosphonium dicyanamide] + O
w2 = 0.0309
Conditions | refractive index | surface tension liquid-gas [mN/m]
[3], 298.2 K | – | 32.56
[3], 307.8 K | – | 31.8
[3], 318 K | – | 31.2
[3], 328 K | – | 30.5
[3], 338.8 K | – | 29.9
[3], 342.8 K | – | 29.5
[4], 298.15 K | 1.47866 | –
[4], 303.15 K | 1.47702 | –
[4], 308.15 K | 1.47535 | –
[4], 313.15 K | 1.47367 | –
[4], 318.15 K | 1.47207 | –
[4], 323.15 K | 1.47049 | –
[4], 328.15 K | 1.46893 | –
[4], 333.15 K | 1.46739 | –
[4], 338.15 K | 1.46586 | –
[4], 343.15 K | 1.46442 | –
[4], 348.15 K | 1.46302 | –
[4], 353.15 K | 1.46163 | –

CCCCCCCCCCCCCC[P+](CCCCCC)(CCCCCC)CCCCCC.[Br-] [tetradecyltrihexylphosphonium bromide]
Conditions | refractive index | surface tension liquid-gas [mN/m]
[1], 298.2 K | – | 30.9
[1], 308.5 K | – | 30.2
[1], 318 K | – | 29.6
[1], 328.8 K | – | 28.7
[1], 338.6 K | – | 28.1
[1], 343.4 K | – | 27.9
[2], 283.15 K | 1.49456 | –
[2], 288.15 K | 1.49295 | –
[2], 293.15 K | 1.49139 | –
[2], 298.15 K | 1.48977 | –
[2], 303.15 K | 1.48814 | –
[2], 308.15 K | 1.48654 | –
[2], 313.15 K | 1.4849 | –
[2], 318.15 K | 1.4833 | –
[2], 323.15 K | 1.48167 | –
[2], 328.15 K | 1.47999 | –
[2], 333.15 K | 1.47834 | –
[2], 338.15 K | 1.47677 | –
[2], 343.15 K | 1.47511 | –
[2], 348.15 K | 1.47346 | –
[2], 353.15 K | 1.47189 | –
